Legend:
[1] = Dissociation constant was evaluated; assay type: physicochemical
[2] = Rate of hydrolysis of nitrocefin by compound was evaluated in water; assay type: ADME; conditions: buffer

SMILES | pKa [1] | Activity [2]
Cl.Cl.[Zn+2].c1ccc(CNCc2ccccn2)nc1 | 9.4 | 2.52e-08 M⁻¹ s⁻¹
[Cl-].[S-]CCN(Cc1ccccn1)Cc1ccccn1.[Zn+2] | 9 | 6.5e-09 M⁻¹ s⁻¹

Source: ChEMBL document CHEMBL1133196, “A model for ZnII-containing-beta-lactamase: synthesis, X-ray crystal structure of a zinc(II) complex bearing thiol group and hydrolysis of phosphate diester” (Bioorg Med Chem Lett, 2000)
